# Source: patent publication US20160095823A1, “METHODS OF USING PROPOFOL DERIVATIVES FOR ANALGESIA” (priority 2005, published 2016)
# “And” between values parts separate entries of the source, which are not always exact repeats. Equal values may be shown once.
# Assays:
# Xenopus laevis embryos [1] = details: cited from earlier work
# glycine receptors = details: reported; cited from earlier work
# [2] = molecular target: T1, α-subunits of glycine receptors from the rat coexpressed with human β subunits (Rattus norvegicus, UniProt P07727); assay: Example 2: co-activation of the current response to 10 μM glycine, whole-cell mode, HEK293 cells; format: cell-based
# T1 construct: expressed in transfected cells; host or cells: HEK293
# Procedure: (§1) Small cells were studied in the whole-cell mode using an ultra-fast application device.
# The results presented in FIG. 10 were corroborated by repeating the tests carried out to provide the data shown in FIG. 10 to provide the data shown in FIG. 11. […] Note from FIGS. 10 and 11 that the co-activating effect is observed in the concentration range between […]. The co-activating effect is overridden by inhibitory effects at higher concentrations (≧1000 μM). […] Small cells were studied in the whole-cell mode using an ultra-fast application device.
# [3] = molecular target: T1, α-subunits of glycine receptors from the rat coexpressed with human β subunits; assay: Example 2: direct activation in the absence of glycine, whole-cell mode, HEK293 cells; format: cell-based
# Source text: as §1
# The solid line is a Hill fit to the data with the indicated parameters. Note that the direct activating effect is observed at 1000-fold higher concentrations than the co-activating effect.
# [4] = molecular target: T2, recombinant glycine alpha1 receptors (Homo sapiens, UniProt P23415); assay: Glycine (EC10)-evoked current in Xenopus oocytes; format: cell-based; details: 100 nM, preliminary experiments
# T2 construct: expressed in transfected cells; host or cells: Xenopus oocytes
# T2 sequence (P23415 29-457): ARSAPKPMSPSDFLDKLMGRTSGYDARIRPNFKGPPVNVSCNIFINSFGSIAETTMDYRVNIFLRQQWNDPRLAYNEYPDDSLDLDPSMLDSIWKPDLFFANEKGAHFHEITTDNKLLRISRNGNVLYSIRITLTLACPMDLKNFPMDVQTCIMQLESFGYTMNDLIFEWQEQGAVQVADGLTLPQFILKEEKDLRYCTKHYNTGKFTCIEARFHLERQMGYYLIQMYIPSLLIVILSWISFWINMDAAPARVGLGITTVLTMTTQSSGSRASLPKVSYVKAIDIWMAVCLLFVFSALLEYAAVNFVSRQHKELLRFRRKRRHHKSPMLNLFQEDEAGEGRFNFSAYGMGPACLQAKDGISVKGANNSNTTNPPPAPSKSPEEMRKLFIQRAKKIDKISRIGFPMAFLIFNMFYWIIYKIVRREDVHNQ
# native glycine receptors = assay: Rat in vitro spinal cord preparation (sIPSCs, tonic conductance); details: 100 nM-1 μM, preliminary experiments
# Xenopus laevis embryos [5] = assay: Fictive swimming in immobilized stage 37/8 Xenopus embryos (ventral root recording); format: in vivo
# Source text: The rhythmic swimming behaviour of Xenopus laevis frog embryos (FIG. 22A) is recognised as a powerful model system for exploring spinal neural networks controlling locomotion. The intensity, frequency and duration of swimming episodes are regulated by two inhibitory pathways: a descending brainstem GABA pathway that turns off swimming and a spinal glycinergic pathway that controls the cycle periods attained during swimming.
# In the present study Xenopus embryos were used to test the action of 4-chloropropofol (a compound according to the first aspect of the invention) upon fictive swimming in immobilized embryos.
# Stage 37/8 embryos (FIG. 22Ai) were immobilized in α-bungarotoxin, secured on a Sylgard block mounted in a recording chamber and recirculated with frog ringer. The flank skin on the left and right sides of the trunk was removed to expose the inter-myotomal clefts wherein lie the ventral roots and then three glass suction electrodes were positioned at rostral and caudal levels on the left side and rostrally on the right side (FIG. 22Aiii) to record “fictive” swimming (FIG. 22B). Swimming activity was evoked by a brief 1 msec current pulse applied to the tail skin via a fourth glass suction electrode. Drugs were applied directly to the bath.
# [6] = 10 μM in the presence of 1 μM strychnine
# [7] = 10 μM in the presence of 1 μM strychnine, pooled n=3
# [8] = 10 μM in the presence of 40 μM bicuculline methiodide
# [9] = wash after 10 μM in 1 μM strychnine
# [10] = wash after 10 μM in 40 μM bicuculline methiodide
# T1 sequence (P07727 29-457): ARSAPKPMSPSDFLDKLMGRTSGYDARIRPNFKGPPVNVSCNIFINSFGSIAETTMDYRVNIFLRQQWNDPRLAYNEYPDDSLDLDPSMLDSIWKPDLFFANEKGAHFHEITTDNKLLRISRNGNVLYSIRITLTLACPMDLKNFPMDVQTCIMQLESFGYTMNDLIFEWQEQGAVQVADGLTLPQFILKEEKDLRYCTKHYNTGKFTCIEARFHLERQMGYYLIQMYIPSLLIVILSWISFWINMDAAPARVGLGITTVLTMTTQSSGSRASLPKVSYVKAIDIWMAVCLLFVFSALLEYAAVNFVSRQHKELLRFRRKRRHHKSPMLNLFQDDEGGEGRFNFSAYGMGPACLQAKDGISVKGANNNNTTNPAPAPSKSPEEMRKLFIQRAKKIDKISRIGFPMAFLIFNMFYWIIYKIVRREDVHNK
# T1 sequence (P48167 23-497 partner): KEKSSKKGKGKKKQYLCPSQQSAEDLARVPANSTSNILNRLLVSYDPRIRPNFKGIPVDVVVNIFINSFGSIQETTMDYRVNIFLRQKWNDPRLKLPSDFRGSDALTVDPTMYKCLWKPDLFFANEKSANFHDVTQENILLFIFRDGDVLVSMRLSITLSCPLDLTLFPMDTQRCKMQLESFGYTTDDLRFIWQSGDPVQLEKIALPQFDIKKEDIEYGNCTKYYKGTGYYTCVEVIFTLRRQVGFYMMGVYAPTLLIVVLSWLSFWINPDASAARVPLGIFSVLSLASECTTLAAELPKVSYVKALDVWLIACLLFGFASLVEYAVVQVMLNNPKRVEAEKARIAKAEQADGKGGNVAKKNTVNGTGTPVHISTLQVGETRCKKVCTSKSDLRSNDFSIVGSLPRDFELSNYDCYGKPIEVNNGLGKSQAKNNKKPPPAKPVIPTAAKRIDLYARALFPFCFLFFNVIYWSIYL
compound,measurement,setting,value
"CC(C)c1cccc(C(C)C)c1O [propofol, 2,6-di-isopropylphenol]",concentration affecting swimming via potentiation of the glycine receptor,Xenopus laevis embryos [1]; higher concentrations,40 µM
same,concentration inhibiting swimming via actions at the GABAA receptor,Xenopus laevis embryos [1]; low concentration,10 µM
same,"activation of glycine receptors, fold higher concentrations than EC50 at GABAA receptors",glycine receptors,10 fold
"CC(C)c1cc(Cl)cc(C(C)C)c1O [4-chloropropofol, 4-chloro-2,6 di-isopropylphenol]",EC50 values in the presence of glycine (co-activation),[2]; Example 2,single-digit nanomolar range
same,concentrations above which peak current amplitude declines (probable open channel block),[2]; co-applied with 10 μM glycine,above 10 μM
same,concentrations at which the co-activating effect is overridden by inhibitory effects,[2]; co-applied with 10 μM glycine,≥ 1000 µM
same,"enhancement of glycine receptor function / EC50 for co-activation, fold lower concentrations than propofol",[2]; glycine receptors heterologously expressed in HEK293 cells,1000 fold
same,EC50 values in the absence of the natural transmitter glycine,[3]; Example 2,single-digit micromolar range
same,"direct activating effect, fold higher concentrations than the co-activating effect",[3]; absence of glycine versus 10 μM glycine,1000 fold
same,effect on glycine (EC10)-evoked current,[4],greatly enhanced
same,effect on sIPSCs (mediated by synaptic glycine receptors),native glycine receptors,prolongation
same,effect on tonic conductance (mediated by extrasynaptic glycine receptors),native glycine receptors,increase
same,change in episode duration,Xenopus laevis embryos [5]; 10 μM alone,no significant change
same,increase in left-right delay,Xenopus laevis embryos [5]; 10 μM alone,19%
same,increase in rostro-caudal delay,Xenopus laevis embryos [5]; 10 μM alone,8%
same,increase in cycle periods,"Xenopus laevis embryos [5]; 10 μM alone, pooled from 5 experiments",approximately 20%
same,decrease in cycle periods at the end of the episode,Xenopus laevis embryos [5]; [6],3.4 ms
same,decrease in episode duration,Xenopus laevis embryos [5]; [6],17 s
same,increase in cycle periods at the start of the episode,Xenopus laevis embryos [5]; [6],0.5 ms
same,decrease in cycle periods (not significant),Xenopus laevis embryos [5]; [7],less than 2%
same,effect on episode duration,Xenopus laevis embryos [5]; [7],little or no effect
same,effect on left-right delay,Xenopus laevis embryos [5]; [7],little or no effect
same,increase in cycle periods at the end of the episode,Xenopus laevis embryos [5]; [8],20.3 ms
same,increase in cycle periods at the start of the episode,Xenopus laevis embryos [5]; [8],8.2 ms
same,increase in episode duration,Xenopus laevis embryos [5]; [8],2 s
same,average cycle period,Xenopus laevis embryos [5]; 20 minutes after addition of 10 μM 4-chloropropofol in bicuculline,61.3 ms
same,reversal of effect on cycle period by saline wash,Xenopus laevis embryos [5]; after 10 μM alone,25-30%
same,reversal of effect on left-right delay by saline wash,Xenopus laevis embryos [5]; after 10 μM alone,22%
same,reversal of effect on rostro-caudal delay by saline wash,Xenopus laevis embryos [5]; after 10 μM alone,12%
same,average cycle period,Xenopus laevis embryos [5]; after bicuculline methiodide wash,54.5 ms
same,effect at the GABAA receptor,Xenopus laevis embryos [5]; at 1004 (so in the source),negligible effect
same,influence on glycine receptors,Xenopus laevis embryos [5]; at the same concentration,powerful influence
same,change in rostro-caudal delay,Xenopus laevis embryos [5]; in the presence of 1 μM strychnine,small increase
same,change in rostro-caudal delay,Xenopus laevis embryos [5]; in the presence of 40 μM bicuculline methiodide,clear decrease
same,decrease in cycle periods at the end of the episode by strychnine wash,Xenopus laevis embryos [5]; [9],5.4 ms
same,decrease in cycle periods at the start of the episode by strychnine wash,Xenopus laevis embryos [5]; [9],3 ms
same,increase in episode duration by strychnine wash,Xenopus laevis embryos [5]; [9],2 s
same,further decrease in cycle periods by the strychnine wash,"Xenopus laevis embryos [5]; wash after 10 μM in 1 μM strychnine, pooled n=3",3% and 1%
same,further increase of cycle periods at the end of the episode after bicuculline wash,Xenopus laevis embryos [5]; [10],6.5 ms
same,reduction of cycle period at the start of the episode by bicuculline wash,Xenopus laevis embryos [5]; [10],2 ms
same,reduction of episode duration by bicuculline wash,Xenopus laevis embryos [5]; [10],2 s
